According to EP3858357A1, “USE OF AZOLE COMPOUNDS TO STIMULATE THE IMMUNE SYSTEM AND AS INHIBITORS FOR S-PLA2GIB” (Diaccurate, priority 2020, dated 2021):

How the values were obtained:
[1] = biological target: sPLA2hGIB (Homo sapiens, UniProt P04054); test: Inhibition of sPLA2hGIB enzymatic activity, [3H]oleate-labelled E. coli membranes (method of Rouault et al., 2006); type: biochemical; details: sPLA2hGIB (2 pM) pre-incubated with 10, 30, 100, 300 µM; Figure 2A
Source text: (§1) • Figure 1: Screening of the inhibition of sPLA2hGIB enzymatic activity by small molecules previously identified by in silico screening. 0% represents non-specific hydrolysis in the absence of sPLA2hGIB, and 100 % represents sPLA2hGIB activity with DMSO (1 %). […] The condition 'no hGIB' (0%) represents the non-specific hydrolysis of phospholipids present in E. coli membranes radio-labeled with [^3H]oleate. […] HA-tagged receptors are in the presence of sPLA2hGIB or sPLA2hGIIF, then in the presence of a specific biotinylated anti-sPLA2 antibody; "acceptor" beads are coupled to an anti-HA antibody (PerkinElmer) and "donor" beads are coupled to Streptavidine (PerkinElmer).
The condition 'no hGIB' (0%) represents the non-specific hydrolysis of phospholipids present in E. coli membranes radio-labeled with [^3H]oleate.

[2] = biological target: T1, sPLA2hGX (Homo sapiens, UniProt O15496); test: Inhibition of sPLA2hGX enzymatic activity (method of Rouault et al., 2006); type: biochemical; details: 3-300 µM tested; Figure 2B
T1 sequence (O15496 43-165): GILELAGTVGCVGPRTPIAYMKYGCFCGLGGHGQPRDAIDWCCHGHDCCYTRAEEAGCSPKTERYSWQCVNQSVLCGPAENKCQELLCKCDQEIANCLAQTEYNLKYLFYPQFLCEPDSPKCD

[3] = biological target: T2, sPLA2hGIIA (Homo sapiens, UniProt P14555); test: Inhibition of sPLA2hGIIA enzymatic activity (method of Rouault et al., 2006); type: biochemical; details: 3-300 µM tested; Figure 2B
T2 sequence (P14555 21-144): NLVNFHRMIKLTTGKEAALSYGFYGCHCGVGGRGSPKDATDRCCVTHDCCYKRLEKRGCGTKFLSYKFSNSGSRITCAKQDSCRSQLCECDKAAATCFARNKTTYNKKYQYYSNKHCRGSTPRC

[4] = biological target: sPLA2hGV (Homo sapiens, UniProt P39877); test: Inhibition of sPLA2hGV enzymatic activity (method of Rouault et al., 2006); type: biochemical; details: 3-300 µM tested; Figure 2B
[5] = biological target: binding between mPLA2R1 receptor and sPLA2hGIB (Homo sapiens, UniProt P04054); test: AlphaLISA-based competition test of sPLA2hGIB binding to soluble HA-tagged mPLA2R1; details: decrease of binding between mPLA2R1 and sPLA2hGIB; Figure 3B
Source text: as §1
The inventors have developed and used an AlphaLISA®-based test (Figure 3A) capable of detecting binding between the soluble form of mPLA2R1 (which includes the whole extracellular part), and sPLA2hGIB. […]
HA-tagged receptors are in the presence of sPLA2 of interest, then in the presence of a specific biotinylated anti-sPLA2 antibody; "acceptor" beads are coupled to an anti-HA antibody (PerkinElmer) and "donor" beads are coupled to Streptavidine (PerkinElmer). The binding of a HA-tagged receptor and a sPLA2 of interest in solution, results in a proximity of donor and acceptor beads, allowing for energy transfer and the production of a light signal, which is then measured.

Sequence of binding between mPLA2R1 receptor and sPLA2hGIB (P04054 23-148): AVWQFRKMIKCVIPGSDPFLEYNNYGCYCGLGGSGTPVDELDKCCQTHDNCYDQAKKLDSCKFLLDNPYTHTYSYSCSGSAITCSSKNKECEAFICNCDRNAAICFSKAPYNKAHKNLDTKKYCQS
Sequence of sPLA2hGIB (P04054 23-148): as above
Sequence of sPLA2hGV (P39877 21-138): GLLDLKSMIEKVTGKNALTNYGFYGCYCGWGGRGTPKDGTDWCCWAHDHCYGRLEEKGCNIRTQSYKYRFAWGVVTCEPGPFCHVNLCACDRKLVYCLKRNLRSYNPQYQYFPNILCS

## CC(C)N1CCN(c2ccc(OCC3COC(Cn4cncn4)(c4ccc(Cl)cc4Cl)O3)cc2)CC1 [Terconazole, 1-{[(2S,4S)-2-(2,4-dichlorophenyl)-4-{[p-(4-isopropyl-1-piperazinyl)phenoxy]methyl}-1,3-dioxolan-2-yl]methyl}-1H-1,2,4-azole]
[1]
  IC50: 100 to 150 µM
[2]
  IC50: ~150 µM
[3]
  IC50: > 300 µM
[4]
  IC50: > 300 µM
[5]
  IC50: ~100 µM
